# Test results taken from patent US10442835B2, “Water-soluble rapamycin derivatives” (Zhejiang Hisun Pharmaceutical Co., Ltd., priority 2016, dated 2019).
# Read-outs that look alike come from different tables or passages of the source.
# How the values were obtained:
# lung cancer cell NCI460 = assay: In vitro activity assay, growth of NCI460; format: cell-based; conditions: NCI-460, 48 h
# Description: (§1) The anti-tumor activity and toxicity of the compounds according to the present invention can be assayed through standard operational procedures of pharmacological experiment. The experiments carried out herein can test the inhibitory effect of the compounds according to the present invention on the growth of human liver cancer cell HepG2, lung cancer cell NCI460, prostate cancer cell DU145, prostate cancer cell PC3, and human breast cancer cell MDA-MB-435. The operational procedure used is briefly described below by taking the inhibitory activity assay against human liver cancer cell HepG2 as an example.
# (§2) The operational procedure for the assay is as follows:
# (§3) 1. Cells after being trypsinized were inoculated in 96-well plates at a concentration of 10^4 cells/well, and allowed to grow in a medium with a final volume of 200 μL. The 96-well plates after inoculation are allowed to stand for 24 hours at 37° C., in order to allow the cells to adhere to the surface of the wells.
# (§4) 2. The medium was removed by carefully pipetting without disturbing the cell monolayer. 200 μL Fresh medium was added into each well. It is arranged to make it possible to collect samples from enough wells to run the experiments in triplicate.
# (§5) 3. The compounds to be tested according to the present invention were dissolved into 10 μL phosphate buffered solution (PBS) and incubated for 48 h at 37° C.
# (§6) 4. In the last 6 h of incubation, cells in each well of the 96-well plates were labeled by 1 microcurie T thymidine (New England Nuclear thymidine), by adding 10 μL PBS containing 1 microcurie T thymidine (which was added into the PBS on the day of collecting the samples for test). The 96-well plates were then returned to the incubator and incubated for the last 6 h.
# (§7) 5. Without disturbing the cell monolayer, the radioactive medium was removed by pipetting. Then 50 μL of BRL 10×trypsin was added to each well, followed by incubation at 37° C. for 10 minutes or until the cell monolayer was detached from the bottom (or the wall) of each well. Samples were collected on glass-fiber diskettes using a Skatron 96-well cell harvester. Cells depositing on the glass-fiber diskettes were counted in a Wallac Betaplate counter.
# prostate cancer cell PC3 = assay: In vitro activity assay, growth of PC3; format: cell-based; conditions: 48 h
# Description: as §1, §2, §3, §4, §5, §6, §7
# [1] = Test for solubility in water; format: physicochemical; conditions: for solubility: water, thermodynamic from solid
# Description: The experiments herein can measure the dissolution profile in water of the compounds according to the present invention.
# To a 25 ml volumetric flask, 25 mg everolimus was added, and diluted with acetonitrile to volume. The mixture was shaken till all the solid dissolved, obtaining 1 mg/mL everolimus solution in acetonitrile.
# 1 mg/mL everolimus solution in acetonitrile was added to a 10 ml volumetric flask, and was diluted with acetonitrile by 2 times, 10 times, 100 times and 1000 times, so as to obtain everolimus solutions in acetonitrile with a concentration of 0.5 mg/mL, 0.1 mg/mL, 0.01 mg/mL and 0.001 mg/mL, respectively.
# Each of the three mixtures was shaken till the solid in the volumetric flask stopped to dissolve. Before analyzed by HPLC, 1 mL of each solution was filtrated via a 0.22 μm filter. The solubility of the compounds was calculated from the standard curve using the peak area of the main peak obtained.
# Based on the same study method, comparisons of the solubility between sirolimus/temsirolimus and the compounds modified by glutathione are carried out, respectively.
# [2] = test system: prostate cancer cell DU145; assay: In vitro activity assay, growth of DU145; format: cell-based; conditions: Homo sapiens; DU-145; 48 h
# Description: as §1, §2, §3, §4, §5, §6, §7
# [3] = test system: human breast cancer cell MDA-MB-435; assay: In vitro activity assay, growth of MDA-MB-435; format: cell-based; conditions: 48 h
# Description: as §1, §2, §3, §4, §5, §6, §7
# [4] = test system: human liver cancer cell HepG2; assay: In vitro activity assay, growth of HepG2 (thymidine incorporation); format: cell-based; conditions: 48 h
# Description: as §1
# Human liver cancer cell HepG2 grew in the follow medium:
# Preparation of the growth medium: BRL minimum essential medium with Earle Salts (500 mL), with the addition of the following agents:
# as §2, §3, §4, §5, §6, §7
Structure (SMILES),IC50 (prostate cancer cell PC3) [µM],solubility [1] [µg/mL],IC50 [2] [µM],IC50 [3] [µM],IC50 [4] [µM],"solubility ([1]; pure water, Table 2, compounds I-5, I-6, I-7 converted to temsirolimus, read-out: Solubility in water) [µg/mL]",IC50 (lung cancer cell NCI460) [µM],increase of solubility in water as compared with sirolimus [1],increase of solubility in water as compared with temsirolimus [1]
CO[C@H]1C[C@@H]2CC[C@@H](C)[C@@](O)(O2)C(=O)C(=O)N2CCCC[C@H]2C(=O)OC([C@H](C)C[C@@H]2CC[C@@H](OC(=O)CSC[C@H](NC(=O)CC[C@H](N)C(=O)O)C(=O)NCC(=O)O)[C@H](OC)C2)CC(=O)[C@H](C)/C=C(\C)[C@@H](O)[C@@H](OC)C(=O)[C@H](C)C[C@@H](C)\C=C/C=C/C=C/1C (stereo partly shown) [Compound I-3],31.396 ± 0.008,470,62.511 ± 0.01,63.633 ± 0.015,35.188 ± 0.007,,82.328 ± 0.011,at least 470 times,
CO[C@H]1C[C@@H]2CC[C@@H](C)[C@@](O)(O2)C(=O)C(=O)N2CCCC[C@H]2C(=O)OC([C@H](C)C[C@@H]2CC[C@@H](OC(=O)C(C)(CO)COC(=O)CSC[C@H](NC(=O)CC[C@H](N)C(=O)O)C(=O)NCC(=O)O)[C@H](OC)C2)CC(=O)[C@H](C)/C=C(\C)[C@@H](O)[C@@H](OC)C(=O)[C@H](C)C[C@@H](C)\C=C/C=C/C=C/1C (stereo partly shown) [Compound I-5],38.396 ± 0.008,580,60.813 ± 0.011,70.761 ± 0.009,50.213 ± 0.01,,80.53 ± 0.013,,at least 580 times
"CO[C@H]1C[C@@H]2CC[C@@H](C)[C@@](O)(O2)C(=O)C(=O)N2CCCC[C@H]2C(=O)O[C@H]([C@H](C)C[C@@H]2CC[C@@H](O)[C@H](OC)C2)CC(=O)[C@H](C)/C=C(\C)[C@@H](O)[C@@H](OC)C(=O)[C@H](C)C[C@H](C)/C=C/C=C/C=C/1C [Sirolimus, reference compound]",42.371 ± 0.009,< 1,68.52 ± 0.009,68.57 ± 0.007,66.254 ± 0.007,,101.36 ± 0.013,,
"CO[C@H]1C[C@@H]2CC[C@@H](C)[C@@](O)(O2)C(=O)C(=O)N2CCCC[C@H]2C(=O)O[C@H]([C@H](C)C[C@@H]2CC[C@@H](OC(=O)C(C)(CO)CO)[C@H](OC)C2)CC(=O)[C@H](C)/C=C(\C)[C@@H](O)[C@@H](OC)C(=O)[C@H](C)C[C@H](C)/C=C/C=C/C=C/1C [Temsirolimus, reference compound]",47.319 ± 0.005,,65.361 ± 0.015,77.31 ± 0.005,60.337 ± 0.01,~1,113.25 ± 0.011,,

# Now from value to compound, other results behind:
IC50 (prostate cancer cell PC3) [µM],solubility [1] [µg/mL],IC50 [2] [µM],IC50 [3] [µM],IC50 [4] [µM],"solubility ([1]; pure water, Table 2, compounds I-5, I-6, I-7 converted to temsirolimus, read-out: Solubility in water) [µg/mL]",Structure (SMILES),IC50 (lung cancer cell NCI460) [µM],increase of solubility in water as compared with sirolimus [1],increase of solubility in water as compared with temsirolimus [1]
51.413 ± 0.005,610,93.277 ± 0.011,73.283 ± 0.012,73.402 ± 0.007,,CO[C@H]1C[C@@H]2CC[C@@H](C)[C@@](O)(O2)C(=O)C(=O)N2CCCC[C@H]2C(=O)OC([C@H](C)C[C@@H]2CC[C@@H](OC(=O)CSC[C@H](NC(=O)CC[C@H](N)C(=O)O)C(=O)NCC(=O)O)[C@H](OC)C2)CC(=O)[C@H](C)/C=C(\C)[C@@H](OC(=O)CSC[C@H](NC(=O)CC[C@H](N)C(=O)O)C(=O)NCC(=O)O)[C@@H](OC)C(=O)[C@H](C)C[C@@H](C)\C=C/C=C/C=C/1C (stereo partly shown) [Compound I-4],122.8 ± 0.017,≥ 610 times,
60.492 ± 0.01,830,82.51 ± 0.015,81.31 ± 0.008,76.703 ± 0.012,,CO[C@H]1C[C@@H]2CC[C@@H](C)[C@@](O)(O2)C(=O)C(=O)N2CCCC[C@H]2C(=O)OC([C@H](C)C[C@@H]2CC[C@@H](OC(=O)C(C)(COC(=O)CSC[C@H](NC(=O)CC[C@H](N)C(=O)O)C(=O)NCC(=O)O)COC(=O)CSC[C@H](NC(=O)CC[C@H](N)C(=O)O)C(=O)NCC(=O)O)[C@H](OC)C2)CC(=O)[C@H](C)/C=C(\C)[C@@H](OC(=O)CSC[C@H](NC(=O)CC[C@H](N)C(=O)O)C(=O)NCC(=O)O)[C@@H](OC)C(=O)[C@H](C)C[C@@H](C)\C=C/C=C/C=C/1C (stereo partly shown) [Compound I-7],131.26 ± 0.01,,≥ 830 times
